Measurements reported in article PMC7377239, “Cardiovascular Effects of Polychlorinated Biphenyls and Their Major Metabolites” (Environmental Health Perspectives, 2020).
Where two headings read alike, the source gives them in different places.

Key:
[1] = test system: iCell cardiomyocytes (human iPSC-derived cardiomyocytes); experiment: High-content imaging of cytotoxicity and mitochondrial integrity in iPSC-CMs; type: cell-based; conditions: for cm.mii.90min / cm.mito.90min / cm.mii.24hrs / cm.mito.24hrs: 0.00 µM = 100.00; for minimal effective concentration: Homo sapiens, Cardiomyocyte, cardiomyocytes (cm)
Method in brief: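 Cardiomyocytes grown on gelatinized 384-well plates received fresh medium on the experiment day and were then exposed to chemicals at 0.01–100μM. Nuclei and mitochondria were labeled with Hoechst 33342 and MitoTracker™ Orange, then fixed, and imaged on an ImageXpress® Micro Confocal system. Four-parameter logistic concentration–response fits in R, with a one-standard-deviation vehicle cutoff, gave point-of-departure values.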

[2] = test system: iPSC-CMs, iPSC-ECs and HUVECs phenotypes; experiment: ToxPi 2.0 integration of POD values and physicochemical descriptors; design: species or system human; conditions: ToxPi-scaled (0-1) score; for huvec.cyto.24hr / huvec.mito.24hr / huvec.mitoint.24hr / huvec.nma.24hr / huvec.tc.24hr / huvec.mtl.18hr / huvec.tlps.18hr / huvec.tta.18hr / huvec.ttl.18hr: HUVECs; for huvec.mtl.18hr / huvec.tlps.18hr / huvec.tta.18hr / huvec.ttl.18hr / endo.mtl.18hr / endo.tlps.18hr / endo.tta.18hr / endo.ttl.18hr: tube formation; for cm.amp.avg.90min / cm.amp.cv.90min / cm.bpm.90min / cm.cam.90min / cm.decay.rise.90min / cm.mii.90min / cm.mito.90min / cm.spacing.cv.90min / cm.tc.90min / cm.amp.avg.24hrs / cm.amp.cv.24hrs / cm.bpm.24hrs / cm.cam.24hrs / cm.decay.rise.24hrs / cm.mii.24hrs / cm.mito.24hrs / cm.spacing.cv.24hrs / cm.tc.24hrs: iPSC cardiomyocytes; for endo.cyto.24hr / endo.mito.24hr / endo.mitoint.24hr / endo.nma.24hr / endo.tc.24hr / endo.mtl.18hr / endo.tlps.18hr / endo.tta.18hr / endo.ttl.18hr: iPSC endothelial cells
From the text: Phenotypic responses were quantitatively assessed using concentration–response modeling as detailed elsewhere ([Sirenko et al. 2017]). Briefly, phenotypic readouts were normalized to vehicle controls and fit to a four-parameter logistic model in R studio software (version 3.1.1; R Development Core Team). Following EPA guidance on dose–response modeling, a cutoff of one standard deviation across means of vehicle control (i.e., 0.5% vol/vol DMSO in cell culture media) wells was applied to determine the point-of-departure (POD) values ([U.S. EPA 2012]). In the absence of a concentration–response, the highest tested concentration (i.e., 100μM ) was assigned as “no observable adverse effect level.” The concentration–response assessment R script, as well as templates for vehicle and concentration–response data, are available as a supplement to Sirenko et al. ([2017]). The ability of physicochemical properties to predict differences in PODs were evaluated by multiregression and mixed-effects modeling using R.
POD values were then integrated using ToxPi 2.0 ([Marvel et al. 2018]) software. In ToxPi, each slice is representative of cell type– and time-point–specific phenotypes. The area of each slice is proportional to the relative value (e.g., bioactivity or physicochemical descriptor value) of the chemical within the data set. ToxPi scores were used to rank PCBs and their metabolites according to their overall bioactivity and to determine variability in total observable biological responses and chemical characteristics for each major metabolite class and chlorination status (mono-, hexa-chlorinated). Additional visualizations such as dumbbell and principal components analysis plots were generated in R Studio (version 1.1.456; R version 3.5.1; R Development Core Team) using the ggplot2 package.

Clc1ccc(Cl)c(-c2c(Cl)ccc(Cl)c2Cl)c1Cl [(-)-PCB 136, 2,2′,3,3′,6,6′-hexachlorobiphenyl]
cm.mii.90min ([1]; 0.01 µM): 112.68
cm.mito.90min ([1]; 0.01 µM): 96.45
cm.mii.24hrs ([1]; 0.01 µM): 102.85
cm.mito.24hrs ([1]; 0.01 µM): 101.32
cm.mii.90min ([1]; 0.10 µM): 114.32
cm.mito.90min ([1]; 0.10 µM): 99.06
cm.mii.24hrs ([1]; 0.10 µM): 75.71
cm.mito.24hrs ([1]; 0.10 µM): 97.62
cm.mii.90min ([1]; 1.00 µM): 108.72
cm.mito.90min ([1]; 1.00 µM): 99.64
cm.mii.24hrs ([1]; 1.00 µM): 98.56
cm.mito.24hrs ([1]; 1.00 µM): 95.39
cm.mii.90min ([1]; 10.00 µM): 109.00
cm.mito.90min ([1]; 10.00 µM): 96.91
cm.mii.24hrs ([1]; 10.00 µM): 82.93
cm.mito.24hrs ([1]; 10.00 µM): 97.40
cm.mii.90min ([1]; 100.00 µM): 5.98
cm.mito.90min ([1]; 100.00 µM): 0.07
cm.mii.24hrs ([1]; 100.00 µM): 87.76
cm.mito.24hrs ([1]; 100.00 µM): 0.79
huvec.cyto.24hr [2]: 0.6125
huvec.mito.24hr [2]: 0.5549
huvec.mitoint.24hr [2]: 0.9537
huvec.nma.24hr [2]: 0.4969
huvec.tc.24hr [2]: 0.6125
huvec.mtl.18hr [2]: 0.3427
huvec.tlps.18hr [2]: 0.303
huvec.tta.18hr [2]: 0.01368
huvec.ttl.18hr [2]: 0
cm.amp.avg.90min [2]: 0.7629
cm.amp.cv.90min [2]: 0.2327
cm.bpm.90min [2]: 0.26
cm.cam.90min [2]: 0.908
cm.decay.rise.90min [2]: 0.5565
cm.mii.90min [2]: 0.3116
cm.mito.90min [2]: 0.9077
cm.spacing.cv.90min [2]: 0.07999
cm.tc.90min [2]: 0.9177
cm.amp.avg.24hrs [2]: 0.7236
cm.amp.cv.24hrs [2]: 1
cm.bpm.24hrs [2]: 0.3802
cm.cam.24hrs [2]: 0.2824
cm.decay.rise.24hrs [2]: 0.8976
cm.mii.24hrs [2]: 0.3373
cm.mito.24hrs [2]: 0.4521
cm.spacing.cv.24hrs [2]: 0.2002
cm.tc.24hrs [2]: 0.472
endo.cyto.24hr [2]: 0.3713
endo.mito.24hr [2]: 0.3713
endo.mitoint.24hr [2]: 0.4668
endo.nma.24hr [2]: 0
endo.tc.24hr [2]: 0.3821
endo.mtl.18hr [2]: 0.07274
endo.tlps.18hr [2]: 0.09334
endo.tta.18hr [2]: 0.6122
endo.ttl.18hr [2]: 0.627

Clc1ccc(-c2cc(Cl)c(Cl)c(Cl)c2)cc1Cl [PCB 126, 3,3′,4,4′,5-pentachlorobiphenyl]
minimal effective concentration ([1]; 1.5 h, cam, 90 min, read-out: POD cm.cam.90min): 100 µM
minimal effective concentration ([1]; 1.5 h, mii, 90 min, read-out: POD cm.mii.90min): 100 µM
minimal effective concentration ([1]; 1.5 h, mito, 90 min, read-out: POD cm.mito.90min): 100 µM
minimal effective concentration ([1]; 1.5 h, tc, 90 min, read-out: POD cm.tc.90min): 100 µM
minimal effective concentration ([1]; 24 h, cam, 24 hrs, read-out: POD cm.cam.24hrs): 7.03 µM
minimal effective concentration ([1]; 24 h, mii, 24 hrs, read-out: POD cm.mii.24hrs): 100 µM
minimal effective concentration ([1]; 24 h, mito, 24 hrs, read-out: POD cm.mito.24hrs): 7.54 µM
minimal effective concentration ([1]; 24 h, tc, 24 hrs, read-out: POD cm.tc.24hrs): 6.48 µM
effect on cell viability in iPSC-CMs ([1]; iPSC-CMs, 0.01-100 μM, 90 min and 24 h): little effect on cell viability
huvec.cyto.24hr [2]: 0.3035
huvec.mito.24hr [2]: 0
huvec.mitoint.24hr [2]: 0
huvec.nma.24hr [2]: 0
huvec.tc.24hr [2]: 0.3035
huvec.mtl.18hr [2]: 0
huvec.tlps.18hr [2]: 0
huvec.tta.18hr [2]: 0
huvec.ttl.18hr [2]: 0
cm.amp.avg.90min [2]: 0.3003
cm.amp.cv.90min [2]: 0
cm.bpm.90min [2]: 0.8534
cm.cam.90min [2]: 0
cm.decay.rise.90min [2]: 1
cm.mii.90min [2]: 0
cm.mito.90min [2]: 0
cm.spacing.cv.90min [2]: 0
cm.tc.90min [2]: 0
cm.amp.avg.24hrs [2]: 0.3868
cm.amp.cv.24hrs [2]: 0.06292
cm.bpm.24hrs [2]: 0.6773
cm.cam.24hrs [2]: 0.3565
cm.decay.rise.24hrs [2]: 1
cm.mii.24hrs [2]: 0
cm.mito.24hrs [2]: 0.557
cm.spacing.cv.24hrs [2]: 0.3424
cm.tc.24hrs [2]: 0.6297
endo.cyto.24hr [2]: 1
endo.mito.24hr [2]: 1
endo.mitoint.24hr [2]: 0.315
endo.nma.24hr [2]: 0
endo.tc.24hr [2]: 1
endo.mtl.18hr [2]: 0.1325
endo.tlps.18hr [2]: 0.4903
endo.tta.18hr [2]: 0.1238
endo.ttl.18hr [2]: 0.0871
